Read-outs that look alike come from different tables or passages of the source. Marks after values point to notes of the source that are not given here.
Legend:
[1] = system: Burkholderia; conditions: relative to DMSO control; 0.00 = growth with inhibitor equal to or greater than DMSO control
[2] = system: B. pseudomallei; type: cell-based, Burkholderia pseudomallei; conditions: for concentration effects on growth of B. pseudomallei over time: 1 mM to 31.25 μM, FIGS. 3-10, strains 1026b and 340
[3] = molecular target: IspF (Burkholderia pseudomallei, UniProt Q3JRA0); assay: biochemical; type: binding
Chain of IspF (Q3JRA0 whole entry, looked up): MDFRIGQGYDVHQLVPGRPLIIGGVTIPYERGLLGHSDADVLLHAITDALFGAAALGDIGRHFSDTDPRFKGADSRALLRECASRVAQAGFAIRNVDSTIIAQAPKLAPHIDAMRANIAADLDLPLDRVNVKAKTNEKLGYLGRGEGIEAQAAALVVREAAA

[4] = system: Plasmodium falciparum; assay: Antimalarial initial tests, three strains of drug resistant malaria; conditions: all three strains of drug resistant malaria
[5] = system: Burkholderia; assay: microbe, parasite or virus in culture; conditions: read-out: inhibition against Burkholderia

O=C([O-])c1cnc(NCCc2ccc(Cl)cc2)nc1[O-].[Na+].[Na+] [HGN-0028]
% Growth Inhibition Growth Curve [1]: 68.20 ± 2.12%
concentration effects on growth of B. pseudomallei over time [2]: dose dependent
growth of B. pseudomallei over time ([2]; FIG. 2): inhibited the growth
B. pseudomallei growth inhibition at lower concentrations ([2]; lower concentrations): did not inhibit
Kd [3]: 305 µM

Oc1ccc(-n2ccnc2)cc1 [HGN-0029]
% Growth Inhibition Growth Curve [1]: 23.58 ± 0.54%
concentration effects on growth of B. pseudomallei over time [2]: did not inhibit the growth

CCOC(=O)c1cnc(Nc2ccc3cn[nH]c3c2)[nH]c1=O [HGN-0040, Ethyl 2-((1H-indazol-6-yl)amino)-6-oxo-1,6-dihydropyrimidine-5-carboxylate]
% Growth Inhibition Endpoint (24 h) [1]: 16.39 ± 6.29%
Kd ([3]; pH 7.4): no binding

CCOC(=O)c1cnc(Nc2ccc(CC(=O)O)cc2)[nH]c1=O [HGN-0041, 2-(4-((5-(ethoxycaronyl)-6-oxo-1,6-dihydropyrimidin-2-yl)amino)phenyl)acetic acid]
% Growth Inhibition Endpoint (24 h) [1]: 0.00^b %
Kd ([3]; pH 7.4): not soluble

CCOC(=O)c1cnc(Nc2ccc3[nH]ncc3c2)[nH]c1=O [HGN-0042, Ethyl 2-((1H-indazol-5-yl)amino)-6-oxo-1,6-dihydropyrimidine-5-carboxylate]
% Growth Inhibition Endpoint (24 h) [1]: 20.70 ± 0.71%
Kd ([3]; pH 7.4): not soluble

O=C([O-])c1cnc(Nc2ccc3cn[nH]c3c2)nc1[O-].[Na+].[Na+] [HGN-0045, Sodium 2-((1H-indazol-6-yl)amino)-4-oxoidopyrimidine-5-carboxylate]
% Growth Inhibition Endpoint (24 h) [1]: 0.00^b %
Kd ([3]; pH 7.4): non specific

O=C([O-])c1cnc(Nc2ccc3[nH]ncc3c2)nc1[O-].[Na+].[Na+] [HGN-0046, Sodium 2-((1H-indazol-5-yl)amino)-4-oxoidopyrimidine-5-carboxylate]
% Growth Inhibition Endpoint (24 h) [1]: 15.12 ± 4.25%
Kd ([3]; pH 7.4): non specific

O=C([O-])c1cnc(NCc2ccco2)nc1[O-].[Na+].[Na+] [HGN-0049]
% Growth Inhibition Endpoint (24 h) [1]: 12.25 ± 0.40%
antimalarial potency in initial tests [4]: submicromolar

Oc1ccc(-c2cncn2CCc2ccc(Cl)cc2)cc1 [HGN-0051]
% Growth Inhibition Endpoint (24 h) [1]: 0.00^b %
antimalarial potency in initial tests [4]: potent

O=C(O)c1cnc(NCCc2ccc(Cl)cc2Cl)nc1O [HGN-0118]
inhibition at 1000 µM [5]: 94.5%

From US9890126B2 (priority 2012, dated 2018)
